# Experiments:
# Assay type in all cases: in vivo
# [1] = system: ryegrass, Italian (Lolium multiflorum); assay: Test A preemergence, Italian ryegrass; conditions: 0 to 100 scale (0 no effect, 100 complete control)
# Summary of the method: (§1)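 Injury scores (0 no effect, 100 complete control) were assigned by visually comparing treated with untreated plants after about 10 days of greenhouse growth. Seeds for soil treatment were sown into a loam and sand blend, while plants for foliar treatment grew in pots of that same blend.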
# [2] = system: barnyardgrass (Echinochloa crus-galli); assay: Test A preemergence, barnyardgrass; conditions: 0 to 100 scale (0 no effect, 100 complete control)
# Summary of the method: as §1
# kochia (Kochia scoparia) [3] = assay: Test A preemergence, kochia; conditions: 0 to 100 scale (0 no effect, 100 complete control)
# Summary of the method: as §1
# rice (Oryza sativa) = assay: Test B flooded paddy test, rice; conditions: 250 g ai/ha, applied to paddy water, visual rating after 13 to 15 days, scale 0 (no effect) to 100 (complete control)
# Summary of the method: (§2)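 Flooded 3 cm over soil; compound into paddy water; depth kept constant. Greenhouse 13–15 d.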
# [4] = system: foxtail, giant (Setaria faberii); assay: Test A postemergence, giant foxtail; conditions: 0 to 100 scale (0 no effect, 100 complete control)
# Summary of the method: as §1
# [5] = system: ryegrass, Italian (Lolium multiflorum); assay: Test A postemergence, Italian ryegrass; conditions: 0 to 100 scale (0 no effect, 100 complete control)
# Summary of the method: as §1
# [6] = system: ragweed (common ragweed, Ambrosia elatior); assay: Test A postemergence, ragweed; conditions: 0 to 100 scale (0 no effect, 100 complete control)
# Summary of the method: as §1
# [7] = system: sedge, umbrella (small-flower umbrella sedge, Cyperus difformis); assay: Test B flooded paddy test, umbrella sedge; conditions: 250 g ai/ha, applied to paddy water, visual rating after 13 to 15 days, scale 0 (no effect) to 100 (complete control)
# Summary of the method: as §2
# kochia (Kochia scoparia) [8] = assay: Test A postemergence, kochia; conditions: 0 to 100 scale (0 no effect, 100 complete control)
# Summary of the method: as §1
# corn (Zea mays) = assay: Test A postemergence, corn; conditions: 0 to 100 scale (0 no effect, 100 complete control)
# Summary of the method: as §1
# [9] = system: pigweed (Amaranthus retroflexus); assay: Test A postemergence, pigweed; conditions: 0 to 100 scale (0 no effect, 100 complete control)
# Summary of the method: as §1
# [10] = system: ragweed (common ragweed, Ambrosia elatior); assay: Test A preemergence, ragweed; conditions: 0 to 100 scale (0 no effect, 100 complete control)
# Summary of the method: as §1
# [11] = system: barnyardgrass (Echinochloa crus-galli); assay: Test B flooded paddy test, barnyardgrass; conditions: 250 g ai/ha, applied to paddy water, visual rating after 13 to 15 days, scale 0 (no effect) to 100 (complete control)
# Summary of the method: as §2
# [12] = system: galium (catchweed bedstraw, Galium aparine); assay: Test A postemergence, galium; conditions: 0 to 100 scale (0 no effect, 100 complete control)
# Summary of the method: as §1
# [13] = system: barnyardgrass (Echinochloa crus-galli); assay: Test A postemergence, barnyardgrass; conditions: 0 to 100 scale (0 no effect, 100 complete control)
# Summary of the method: as §1
# [14] = system: pigweed (Amaranthus retroflexus); assay: Test A preemergence, pigweed; conditions: 0 to 100 scale (0 no effect, 100 complete control)
# Summary of the method: as §1
# [15] = system: wheat (Triticum aestivum); assay: Test A postemergence, wheat; conditions: 0 to 100 scale (0 no effect, 100 complete control)
# Summary of the method: as §1
# [16] = system: foxtail, giant (Setaria faberii); assay: Test A preemergence, giant foxtail; conditions: 0 to 100 scale (0 no effect, 100 complete control)
# Summary of the method: as §1
# [17] = system: ducksalad (Heteranthera limosa); assay: Test B flooded paddy test, ducksalad; conditions: 250 g ai/ha, applied to paddy water, visual rating after 13 to 15 days, scale 0 (no effect) to 100 (complete control)
# Summary of the method: as §2
# [18] = system: blackgrass (Alopecurus myosuroides); assay: Test A postemergence, blackgrass; conditions: 0 to 100 scale (0 no effect, 100 complete control)
# Summary of the method: as §1
# [19] = 125 g ai/ha, visual injury, approximately 10 days
# [20] = 500 g ai/ha, visual injury, approximately 10 days
SMILES,"Plant response rating, Ryegrass, Italian ([1]; 125 g ai/ha)","Plant response rating, Barnyardgrass ([2]; 125 g ai/ha)","Plant response rating, Kochia (kochia (Kochia scoparia) [3]; 125 g ai/ha)","Plant response rating, Rice (Flood) (rice (Oryza sativa))","Plant response rating, Foxtail, Giant [4, 19]","Plant response rating, Ryegrass, Italian [5, 19]","Plant response rating, Ragweed [6, 19]","Plant response rating, Sedge, Umbrella (Flood) [7]","Plant response rating, Kochia (kochia (Kochia scoparia) [8]; [19])","Plant response rating, Corn (corn (Zea mays); [19])","Plant response rating, Pigweed [9, 19]","Plant response rating, Ragweed ([10]; 125 g ai/ha)","Plant response rating, Barnyardgrass (Flood) [11]","Plant response rating, Galium [12, 19]","Plant response rating, Barnyardgrass [13, 19]","Plant response rating, Pigweed ([14]; 125 g ai/ha)","Plant response rating, Wheat [15, 19]","Plant response rating, Foxtail, Giant ([16]; 125 g ai/ha)","Plant response rating, Ducksalad (Flood) [17]","Plant response rating, Blackgrass [18, 19]",also measured
"CN1CC(c2cccc(Oc3ccc(F)cc3)c2)C(C(=O)Nc2ccccc2F)C1=O (single isomer, unassigned) [Compound 45]",30,80,0,15,80,0,0,0,40,0,30,0,40,60,90,40,0,90,70,30,"Plant response rating, Ryegrass, Italian ([1]; 500 g ai/ha): 80; Plant response rating, Barnyardgrass ([2]; 500 g ai/ha): 80; Plant response rating, Kochia (kochia (Kochia scoparia) [3]; 500 g ai/ha): 20; Plant response rating, Foxtail, Giant [4, 20]: 80; Plant response rating, Ryegrass, Italian [5, 20]: 30; Plant response rating, Ragweed [6, 20]: 0; Plant response rating, Kochia (kochia (Kochia scoparia) [8]; [20]): 60; Plant response rating, Corn (corn (Zea mays); [20]): 50; Plant response rating, Pigweed [9, 20]: 60; Plant response rating, Ragweed ([10]; 500 g ai/ha): 30; Plant response rating, Galium [12, 20]: 60; Plant response rating, Barnyardgrass [13, 20]: 90; Plant response rating, Pigweed ([14]; 500 g ai/ha): 70; Plant response rating, Wheat [15, 20]: 20; Plant response rating, Foxtail, Giant ([16]; 500 g ai/ha): 90; Plant response rating, Blackgrass [18, 20]: 30"
"CN1CC(c2cccc(Oc3ccc(F)cn3)c2)C(C(=O)Nc2cccc(C#N)c2F)C1=O (single isomer, unassigned) [Compound 88]",20,30,30,0,70,0,0,0,30,20,20,0,0,40,80,20,60,90,50,0,"Plant response rating, Ryegrass, Italian ([1]; 31 g ai/ha): 0; Plant response rating, Barnyardgrass ([2]; 31 g ai/ha): 0; Plant response rating, Kochia (kochia (Kochia scoparia) [3]; 31 g ai/ha): 0; Plant response rating, Foxtail, Giant ([4]; 31 g ai/ha): 30; Plant response rating, Ryegrass, Italian ([5]; 31 g ai/ha): 0; Plant response rating, Ragweed ([6]; 31 g ai/ha): 0; Plant response rating, Kochia (kochia (Kochia scoparia) [8]; 31 g ai/ha): 0; Plant response rating, Corn (corn (Zea mays); 31 g ai/ha): 0; Plant response rating, Pigweed ([9]; 31 g ai/ha): 0; Plant response rating, Ragweed ([10]; 31 g ai/ha): 0; Plant response rating, Galium ([12]; 31 g ai/ha): 30; Plant response rating, Barnyardgrass ([13]; 31 g ai/ha): 30; Plant response rating, Pigweed ([14]; 31 g ai/ha): 0; Plant response rating, Wheat ([15]; 31 g ai/ha): 0; Plant response rating, Foxtail, Giant ([16]; 31 g ai/ha): 30; Plant response rating, Blackgrass ([18]; 31 g ai/ha): 0"
CC1(COc2cccc(C3CNC(=O)C3C(=O)Nc3ccccc3F)c2)COC1 (stereo not drawn) [Compound 14],0,10,0,0,10,0,0,20,0,0,0,0,0,0,10,0,0,30,70,0,"Plant response rating, Ryegrass, Italian ([1]; 500 g ai/ha): 0; Plant response rating, Barnyardgrass ([2]; 500 g ai/ha): 80; Plant response rating, Kochia (kochia (Kochia scoparia) [3]; 500 g ai/ha): 0; Plant response rating, Foxtail, Giant [4, 20]: 70; Plant response rating, Ryegrass, Italian [5, 20]: 0; Plant response rating, Ragweed [6, 20]: 0; Plant response rating, Kochia (kochia (Kochia scoparia) [8]; [20]): 0; Plant response rating, Corn (corn (Zea mays); [20]): 0; Plant response rating, Pigweed [9, 20]: 0; Plant response rating, Ragweed ([10]; 500 g ai/ha): 0; Plant response rating, Galium [12, 20]: 0; Plant response rating, Barnyardgrass [13, 20]: 60; Plant response rating, Pigweed ([14]; 500 g ai/ha): 0; Plant response rating, Wheat [15, 20]: 0; Plant response rating, Foxtail, Giant ([16]; 500 g ai/ha): 90; Plant response rating, Blackgrass [18, 20]: 0"

# — patent publication US10405547B2, “Substituted cyclic amides as herbicides” (FMC Corporation, priority 2015, dated 2019)
